ChEMBL document CHEMBL1649515, “Heteroresistance to fluconazole in Cryptococcus neoformans is intrinsic and associated with virulence” (2009)
Activity calls are given as the source filed them. The calls are words filed in the database; no cut-off is given here.

Legend:
Streptomyces platensis = assay: Antimicrobial activity against Streptomyces platensis at 8 to 32 ug/ml; assay type: functional
Cryptococcus neoformans [1] = assay: Antimicrobial activity against Cryptococcus neoformans serotype A; assay type: functional
Burkholderia sp. = assay: Antimicrobial activity against Burkholderia sp. at 8 to 32 ug/ml; assay type: functional
Aspergillus fumigatus = assay: Antimicrobial activity against Aspergillus fumigatus at 8 to 32 ug/ml; assay type: functional, organism-based
Cryptococcus neoformans [2] = assay: Antimicrobial activity against Cryptococcus neoformans serotype D; assay type: functional

In the case of `OC(Cn1cncn1)(Cn1cncn1)c1ccc(F)cc1F` [FLUCONAZOLE], the Activity (Streptomyces platensis) is reported as “inactive”, the MIC (Cryptococcus neoformans [1]) is reported as ≥ 64 µg/mL and the Activity (Burkholderia sp.) is reported as “inactive”. For the same molecule, the Activity (Aspergillus fumigatus) was “inactive” and the MIC (Cryptococcus neoformans [2]) was ≥ 64 µg/mL.
